# Measurements taken from patent US11602534B2, “Pyrimidine derivative kinase inhibitors” (HEFEI INSTITUTES OF PHYSICAL SCIENCE, CHINESE ACADEMY OF …, priority 2017, dated 2023).
# What was measured:
# BaF3 = assay: Proliferation of BaF3 cells, CCK8 cell viability assay; format: cell-based; conditions: Mus musculus, 72 hours
# Outline: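 Murine BaF3 lines carry retrovirally transduced human kinase domains fused to an N-terminal TEL fragment (cKIT, PDGFRα or PDGFRβ), and IL-3 is withdrawn so their growth depends on the fused kinase; parental BaF3 serves as the reference line. Living cells were quantified by CCK8 dehydrogenase activity, giving GI50 in μM.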
# Tel-cKit-BaF3 = assay: Proliferation of Tel-cKit-BaF3 cells, CCK8 cell viability assay; format: cell-based, mouse; conditions: Mus musculus; 72 hours, CCK8; stably expressing cKIT kinase
# Outline: (§1)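 Mouse BaF3 ± TEL-kinase fusion (human cKIT/PDGFRα/PDGFRβ kinase region, MSCV-Puro retrovirus, IL-3 removed → kinase-addicted). Viability by CCK8 (dehydrogenase), GI50 μM.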
# Tel-cKit/T670I-BaF3 = assay: Proliferation of Tel-cKit/T670I-BaF3 cells, CCK8 cell viability assay; format: cell-based; conditions: Mus musculus, 72 hours, stably expressing cKIT/T670I
# Outline: as §1
# Tel-RET-BaF3 = assay: Proliferation of Tel-RET-BaF3 cells, CCK8 cell viability assay; format: cell-based; conditions: Mus musculus, 72 hours, stably expressing RET kinase
# [1] = test system: human chronic lymphatic leukemia cell strain MEC-1; assay: Proliferation of MEC-1 cells, Cell Titer-Glo; format: cell-based; conditions: MEC1, 72 hours
# Protocol: (§2) In addition, in this example the inhibitory activity of preferred compounds (Compound 5 and Compound 135) was tested against the following cell strains: human acute myeloid leukemia cell strain MV4-11 (expressing FLT3/ITD mutant gene), human acute myeloid leukemia cell strain MOLM-13 (expressing FLT3/ITD mutant gene and wild-type FLT3 gene), human acute myeloid leukemia cell strain MOLM-14 (expressing FLT3/ITD mutant gene and wild-type FLT3 gene), human acute myeloid leukemia cell strain OCI-AML-3 (expressing FLT3 A680V mutant gene), human chronic lymphatic leukemia cell strain MEC-1, Chinese hamster lung (CHL) cells, Chinese hamster ovary (CHO) cells, wherein all the cells were purchased from ATCC. In the example the compounds of the present invention were added respectively into the above cells at different concentrations (0.000508 μM, 0.00152 μM, 0.00457 μM, 0.0137 μM, 0.0411 μM, 0.123 μM, 0.370 μM, 1.11 μM, 3.33 μM, 10 μM in DMSO) and the cells were incubated for 72 hours. The number of viable cells was determined by quantification of ATP in living cells using Cell Titer-Glo® (Promega, the USA) Luminescent Cell Viability Assay kit and thereby GI50 was calculated.
# [2] = test system: human acute myeloid leukemia cell strain MOLM-13; assay: Proliferation of MOLM-13 cells, Cell Titer-Glo; format: cell-based; conditions: for GI50: Homo sapiens, MOLM-13, 72 hours, Cell Titer-Glo, FLT3/ITD and wild-type FLT3, read-out: GI50 MOLM13
# Protocol: as §2
# [3] = test system: human acute myeloid leukemia cell strain MV4-11; assay: Proliferation of MV4-11 cells, Cell Titer-Glo; format: cell-based; conditions: for GI50: Homo sapiens, MV4-11, 72 hours, Cell Titer-Glo, FLT3/ITD
# Protocol: as §2
# [4] = test system: Chinese hamster lung (CHL) cells; assay: cells; format: cell-based; conditions: Cricetulus griseus, 72 hours, Cell Titer-Glo
# Protocol: as §2
# [5] = test system: Chinese hamster ovary (CHO) cells; assay: cells; format: cell-based; conditions: Cricetulus griseus, 72 hours, Cell Titer-Glo
# Protocol: as §2
# [6] = test system: poly(ADP-ribose) polymerase (PARP); assay: Cell apoptosis: PARP cleavage by Western Blot in AML cells; format: cell-based, human; conditions: 1 μM, 24 hours; MOLM-13, MOLM-14, MV-4-11
# Excerpt: In human acute myeloid leukemia cells MV4-11 (expressing FLT3/ITD mutant gene) cell strain and human acute myeloid leukemia cells MOLM-13 and MOLM-14 (expressing FLT3/ITD mutant gene and wild-type FLT3 gene) cell strains, the effects of Compound 5 and Compound 135 on protein cleavage of the DNA repairase poly(ADP-ribose) polymerase (PARP) and Caspase (cysteinyl aspartate-specific proteinase) 3 that were closely related to cell apoptosis were examined in cells in order to confirm whether the death of the cells after the administration was caused by apoptosis or necrosis. MOLM-13, MOLM-14, MV-4-11 cell strains were treated with Compound 5, Compound 135 (at different concentrations: 0 μM, 0.1 μM, 0.3 μM, 1 μM, 3 μM in DMSO) and the control compound PKC412 (purchased from MedChem Express) (1 μM in DMSO), respectively, and the cells were collected after 24 hours. Western Blot was used to detect the effects of different concentrations of compounds on protein cleavage of the DNA repairase poly(ADP-ribose) polymerase (PARP) and Caspase (cysteinyl aspartate-specific proteinase) 3.
# MV4-11 cells = assay: Nude mouse model harboring subcutaneous MV4-11 tumor; format: in vivo; conditions: for tumor volume increase: oral gavage; for tumor growth in mice: MV4-11 subcutaneous tumor, daily oral gavage, four weeks
# Protocol: In order to determine the inhibitory effect of Compound 5 and Compound 135 on tumors in vivo, a nude mouse model harboring subcutaneous tumor was introduced. 44 mice (5-week-old) (Balb/c-nu female mice, purchased from Shanghai Snake Experimental Animal Co., Ltd.) were inoculated subcutaneously with MV4-11 cells at 1×10^7 cells/mouse, and the changes in body weight and tumor volume were recorded daily (tumor volume=tumor length×tumor width×tumor width/2). 10 days later, the mice, of which tumor volumes reached 200 mm^3, were randomized into seven groups with 5-9 mice in each group, and were treated as follows: the first group was administered daily by oral gavage with vehicle, i.e., methylcellulose-based aqueous suspension (purchased from Sinopharm Group Chemical Reagent Co., Ltd.); the second, third and the fourth groups were administered daily by oral gavage with 25 mg/kg, 50 mg/kg, 100 mg/kg of Compound 135 in a methylcellulose-based aqueous suspension formulation; the fifth, sixth and seventh groups were administered daily by oral gavage with 25 mg/kg, 50 mg/kg, 100 mg/kg of Compound 5 in a methylcellulose-based aqueous suspension formulation. The first day of administration was recorded as day 0, followed by continuous administration for four weeks (FIGS. 3a-3b).
GI50 (BaF3) [µM],GI50 (Tel-cKit-BaF3) [µM],GI50 (Tel-cKit/T670I-BaF3) [µM],GI50 (Tel-RET-BaF3) [µM],GI50 [1] [µM],GI50 [2] [µM],GI50 [3] [µM],Structure (SMILES),inhibition of MOLM13 (in words) ([2]; summary of Table 3),inhibition of MV4-11 (in words) ([3]; summary of Table 3),GI50 [4] [µM],GI50 [5] [µM],cleavage of the DNA repairase poly(ADP-ribose) polymerase (PARP) [6],tumor volume increase (MV4-11 cells; 50 mg/kg/day),tumor volume increase (MV4-11 cells; 100 mg/kg/day),tumor growth in mice (MV4-11 cells)
> 10,5.6,> 10,> 10,> 10,0.267,0.147,"CC(=O)Nc1cc(Oc2ccc(NC(=O)Cc3ccc(F)cc3F)cc2)ncn1 [Example 5, N-[4-(6-acetylamino-pyrimidin-4-yloxy)-phenyl]-2-(2,4-difluoro-phenyl)-acetamide]",selectively and strongly inhibited,selectively and strongly inhibited,> 10,> 10,significant cleavage,slowed significantly,slowed vastly,significantly inhibited
> 10,> 10,> 10,> 10,> 10,0.466,0.284,"CC(=O)Nc1cc(Oc2ccc(NC(=O)Cc3ccccc3C(F)(F)F)cc2)ncn1 [Example 135, N-[4-(6-acetylamino-pyrimidin-4-yloxy)-phenyl]-2-(2-trifluoromethyl-phenyl)-acetamide]",–,–,> 10,> 10,significant cleavage,slowed significantly,slowed vastly,significantly inhibited
